From article PMC7982615, “Phase 1 study of telisotuzumab vedotin in Japanese patients with advanced solid tumors” (Cancer Medicine, 2021)
Like-named read-outs stand apart in the source and are kept apart here.

What was measured:
advanced solid tumors [1] = assay: Preliminary antitumor activity, RECIST version 1.1; assay type: in vivo, human; conditions: for PFS estimate at 6 months / Median PFS / Median duration of overall response / PFS estimate at 9 months: [95% CI]; for Median PFS: Kaplan–Meier
Source text: Evaluation of tumor response to determine the objective response rate (ORR), progression‐free survival (PFS), and duration of response was based on RECIST version 1.1 criteria.
All data were summarized and tabulated by dose cohort. Categoric data were summarized in terms of frequency counts and percentages. Continuous data were summarized using descriptive statistics, including number of observations, mean, standard deviation, median, minimum, and maximum. No formal statistical analysis was performed for efficacy variables, which were all exploratory in nature. ORR was defined as the proportion of patients with a confirmed partial response (PR) or complete response (CR). Duration of response was defined as time from a patient's initial objective response to the first date of disease progression (PD) or death. The overall disease control rate was defined as the proportion of patients with CR, PR, or stable disease (SD). […] PFS was estimated using the Kaplan–Meier method. Efficacy analyses are presented with two‐sided exact 95% binomial CI.

advanced solid tumors [2] = conditions: cited from earlier work
[3] = Pharmacokinetics of teliso‐v conjugate and MMAE, noncompartmental; assay type: in vivo, human; conditions: for AUCinf, conjugate / Cmax, conjugate: geometric mean (%CV); for t1/2, conjugate: harmonic mean (min-max); for Tmax, conjugate: median (min-max)
Protocol: PK samples were also collected on cycles 2 and 4 predose and approximately 30 minutes after the end of infusion on day 1. PK parameters such as peak concentration (Cmax), time to peak concentration, area under the concentration‐time curve (AUC), and terminal half‐life (t1/2) were determined using noncompartmental methods.

[4] = total, N = 9, listed as telisotuzumab vedotin
[5] = total, N = 9, listed as teliso-v
[6] = first administration, cycle 1, across 2.4 and 2.7 mg/kg

Teliso‐v: antibody‐drug conjugate: anti–c‐Met humanized monoclonal antibody ABT‐700 coupled to monomethyl auristatin E through a valine‐citrulline linker, drug:antibody ratio approximately three
Complete response (advanced solid tumors [1]; 2.4 mg/kg Q3W, n = 3): 0 n (%)
Disease control rate (advanced solid tumors [1]; 2.4 mg/kg Q3W, n = 3): 3 (100) [NA] n (%) [95% CI]
Objective response rate (advanced solid tumors [1]; 2.4 mg/kg Q3W, n = 3): 0 n (%)
Partial response (advanced solid tumors [1]; 2.4 mg/kg Q3W, n = 3): 0 n (%)
Progressive disease (advanced solid tumors [1]; 2.4 mg/kg Q3W, n = 3): 0 n (%)
Stable disease (advanced solid tumors [1]; 2.4 mg/kg Q3W, n = 3): 3 (100) n (%)
PFS estimate at 6 months (advanced solid tumors [1]; 2.4 mg/kg Q3W, n = 3): 33.3 [0.9–77.4] %
Median PFS (advanced solid tumors [1]; 2.4 mg/kg Q3W, n = 3): 4.1 [2.8–7.1] months
Complete response (advanced solid tumors [1]; 2.7 mg/kg Q3W, n = 6): 0 n (%)
Objective response rate (advanced solid tumors [1]; 2.7 mg/kg Q3W, n = 6): 2 (33) n (%)
Partial response (advanced solid tumors [1]; 2.7 mg/kg Q3W, n = 6): 2 (33) n (%)
Progressive disease (advanced solid tumors [1]; 2.7 mg/kg Q3W, n = 6): 1 (17) n (%)
Stable disease (advanced solid tumors [1]; 2.7 mg/kg Q3W, n = 6): 3 (50) n (%)
Median duration of overall response (advanced solid tumors [1]; 2.7 mg/kg Q3W, n = 6): 8.2 [7.2–9.1] months
PFS estimate at 6 months (advanced solid tumors [1]; 2.7 mg/kg Q3W, n = 6): 83.3 [27.3–97.5] %
PFS estimate at 9 months (advanced solid tumors [1]; 2.7 mg/kg Q3W, n = 6): 83.3 [27.3–97.5] %
Median PFS (advanced solid tumors [1]; 2.7 mg/kg Q3W, n = 6): 10.4 [1.2–12.0] months
Patients with PD (advanced solid tumors [1]; N = 9): one
Patients with SD (advanced solid tumors [1]; N = 9): six
Patients with PR (advanced solid tumors [1]; N = 9, both at 2.7‐mg/kg (urothelial, ovarian cancer)): Two
Reduction of sum of the tumor size (advanced solid tumors [1]; single patient, 27 weeks after teliso-v initiation): 73%
Sum of the tumor size (advanced solid tumors [1]; single patient, lung metastasis, 27 weeks after teliso-v initiation, baseline 64.4 mm): 17.3 mm
Patients with reduction in tumor size from baseline (advanced solid tumors [1]; thymic cancer, NSCLC, ovarian cancer, urothelial cancer): Four
Complete response (advanced solid tumors [1]; total, N = 9): 0 n (%)
Objective response rate (advanced solid tumors [1]; total, N = 9): 2 (22) n (%)
Overall disease control rate (advanced solid tumors [1]; total, N = 9): 89%
PFS estimate at 6 months (advanced solid tumors [1]; total, N = 9): 64.0 [23.8–86.6] %
PFS estimate at 9 months (advanced solid tumors [1]; total, N = 9): 48.0 [12.3–76.9] %
Median PFS (advanced solid tumors [1]; total, N = 9): 7.1 [1.2–10.4] months
Median PFS (advanced solid tumors [1]; [4]): 7.1 months
Median duration of overall response (advanced solid tumors [1]; [5]): 8.2 [7.2–9.1] months
Median duration of overall response (advanced solid tumors [1]; total, N = 9, listed as teliso‐v): 8.2 months
Partial response (advanced solid tumors [1]; [5]): 2 (22) n (%)
Progressive disease (advanced solid tumors [1]; [5]): 1 (11) n (%)
Stable disease (advanced solid tumors [1]; [5]): 6 (67) n (%)
Partial response (advanced solid tumors [1]; [4]): 22%
Progressive disease (advanced solid tumors [1]; [4]): 11%
Stable disease (advanced solid tumors [1]; [4]): 67%
Tolerability (advanced solid tumors [2]; 2.7 mg/kg Q3 W): well tolerated
Patients with PR (advanced solid tumors [2]; c‐Met‐positive NSCLC): three of 14
Recommended phase 2 dose (RP2D) (advanced solid tumors [2]; every 3 weeks, preceding phase 1 study outside of Japan): 2.7 mg/kg
Frequency of corneal epithelium disorder (advanced solid tumors [2]; non‐Japanese patients, nine of 116, teliso‐v monotherapy, ref data on file): 7.8%
Dose proportionality of systemic exposure ([3]; 2.4 and 2.7 mg/kg, cycle 1): approximately dose proportional
t1/2 ([3]; N = 9, both dose levels): 3 to 4 days
AUCinf, conjugate ([3]; cycle 1, 2.4 mg/kg IV, n = 3): 4437 (19) µg*h/mL
Cmax, conjugate ([3]; cycle 1, 2.4 mg/kg IV, n = 3): 55.5 (26) µg/mL
t1/2, conjugate ([3]; cycle 1, 2.4 mg/kg IV, n = 3): 4.18 (3.8–4.7) days
Tmax, conjugate ([3]; cycle 1, 2.4 mg/kg IV, n = 3): 1 (1–1) h
AUCinf, conjugate ([3]; cycle 1, 2.7 mg/kg IV, n = 6): 5202 (23) µg*h/mL
Cmax, conjugate ([3]; cycle 1, 2.7 mg/kg IV, n = 6): 63.0 (22) µg/mL
t1/2, conjugate ([3]; cycle 1, 2.7 mg/kg IV, n = 6): 2.91 (2.5–3.9) days
Tmax, conjugate ([3]; cycle 1, 2.7 mg/kg IV, n = 6): 1 (1–1) h
AUC from zero to infinity, preliminary geometric mean [3, 6]: 4,400–5,200 µg*h/ml
Serum Cmax, preliminary geometric mean [3, 6]: 55.5 to 63.0 µg/mL
Accumulation in cycle 3 ([3]; multiple dosing Q3 W): 1.1–1.2 fold
